From article PMC2880318 (Immunome Research, 2010) come the findings set out here.

Each structure is given as a SMILES string. Where a SMILES comes first, the peptide text is derived from it.

As a reminder, the IC50 is the concentration needed to halve the response being measured. Low values mean higher potency, high ones lower potency.

This assay addresses purified HLA-DRB1*0101 (Homo sapiens, UniProt P01903+P01911, A100R/D57E/F55L/F60I/F76Y/I96L/L162R/M171V/P40L/Q125E/R42F/V115G/Y59C). Put plainly: biochemical. Type of assay: binding.
`CC[C@H](C)[C@H](NC(=O)[C@@H]1CCCN1C(=O)[C@H](CO)NC(=O)[C@@H]1CCCN1)C(=O)NCC(=O)N[C@@H](Cc1ccc(O)cc1)C(=O)N[C@@H](CC(C)C)C(=O)NCC(=O)N[C@@H](CC(C)C)C(=O)N[C@@H](CC(C)C)C(=O)N[C@@H](CO)C(=O)N[C@@H](CCC(N)=O)C(=O)N[C@@H](CCCNC(=N)N)C(=O)N[C@H](C(=O)N[C@@H](CCCNC(=N)N)C(=O)O)[C@@H](C)O` [LASV GPC236-250] showed a half-maximal inhibitory concentration (IC50) of 0.14 nM. To `CC[C@H](C)[C@H](NC(=O)[C@H](Cc1ccc(O)cc1)NC(=O)[C@@H](NC(=O)[C@H](CC(=O)O)NC(=O)[C@H](CCCNC(=N)N)NC(=O)[C@@H](NC(=O)[C@H](CCCNC(=N)N)NC(=O)[C@H](CCC(N)=O)NC(=O)[C@H](CO)NC(=O)[C@H](CC(C)C)NC(=O)[C@H](CC(C)C)NC(=O)CNC(=O)[C@H](CC(C)C)NC(=O)[C@@H](N)Cc1ccc(O)cc1)[C@@H](C)O)[C@@H](C)CC)C(=O)N[C@@H](CO)C(=O)O` [LASV GPC241-255] belongs 0.29 nM; to `CC(C)C[C@H](NC(=O)CNC(=O)[C@H](CS)NC(=O)[C@@H](N)CO)C(=O)N[C@@H](Cc1ccc(O)cc1)C(=O)N[C@@H](CCCCN)C(=O)N[C@@H](CCC(N)=O)C(=O)N1CCC[C@H]1C(=O)NCC(=O)N[C@H](C(=O)N1CCC[C@H]1C(=O)N[C@H](C(=O)N[C@@H](CCCNC(=N)N)C(=O)N[C@@H](Cc1c[nH]c2ccccc12)C(=O)N[C@@H](CCCCN)C(=O)O)C(C)C)C(C)C` [LASV GPC476-490], 1.5 nM. To `CC[C@H](C)[C@H](NC(=O)[C@H](Cc1ccc(O)cc1)NC(=O)[C@H](CC(=O)O)NC(=O)[C@H](CCCCN)NC(=O)[C@H](CCCNC(=N)N)NC(=O)[C@@H](N)CC(C)C)C(=O)N[C@@H](CCCCN)C(=O)N[C@@H](CCCNC(=N)N)C(=O)N[C@@H](CCC(N)=O)C(=O)NCC(=O)N[C@@H](CO)C(=O)N[C@H](C(=O)N1CCC[C@H]1C(=O)N[C@@H](CC(C)C)C(=O)N[C@@H](C)C(=O)O)[C@@H](C)O` [LCMV GPC421-435] belongs 4.8 nM; to `CC[C@H](C)[C@H](NC(=O)[C@H](CC(C)C)NC(=O)CNC(=O)[C@H](CCC(=O)O)NC(=O)[C@@H]1CCCN1C(=O)[C@H](CC(N)=O)NC(=O)[C@@H](NC(=O)[C@H](CCCCN)NC(=O)[C@H](CCC(N)=O)NC(=O)[C@H](Cc1ccccc1)NC(=O)[C@H](CC(N)=O)NC(=O)[C@@H](N)CCCNC(=N)N)C(C)C)C(=O)N[C@@H](CCCCN)C(=O)N[C@@H](CCC(=O)O)C(=O)N[C@@H](Cc1ccccc1)C(=O)O` [LCMV L256-270] (H-RNFQKVNPEGLIKEF-OH), 5.6 nM; to `CC[C@H](C)[C@H](NC(=O)[C@H](CCC(=O)O)NC(=O)[C@H](CO)NC(=O)[C@H](CC(C)C)NC(=O)[C@@H](NC(=O)[C@@H](NC(=O)[C@H](CCCCN)NC(=O)[C@H](CCCNC(=N)N)NC(=O)[C@H](CC(C)C)NC(=O)[C@@H](N)Cc1c[nH]cn1)C(C)C)[C@@H](C)CC)C(=O)N[C@@H](CO)C(=O)N[C@@H](Cc1ccccc1)C(=O)N[C@@H](Cc1c[nH]cn1)C(=O)N[C@@H](CC(C)C)C(=O)N[C@H](C(=O)O)C(C)C` [LCMV L946-960] (H-HLRKVILSEISFHLV-OH), 2.1 nM.

In turn, `CC(C)C[C@H](NC(=O)[C@H](CCC(=O)O)NC(=O)[C@H](CCCNC(=N)N)NC(=O)[C@H](CCCNC(=N)N)NC(=O)[C@H](CC(C)C)NC(=O)[C@H](C)NC(=O)[C@H](CCC(N)=O)NC(=O)[C@@H](NC(=O)[C@H](Cc1c[nH]c2ccccc12)NC(=O)[C@H](CCC(N)=O)NC(=O)[C@H](Cc1ccccc1)NC(=O)[C@H](CO)NC(=O)[C@H](CCCCN)NC(=O)[C@@H](NC(=O)[C@@H](N)CCC(=O)O)C(C)C)[C@@H](C)O)C(=O)O` [LCMV NP6-20] displayed a concentration for half-maximal inhibition (IC50) of 49 nM. `CC[C@H](C)[C@H](NC(=O)[C@H](CS)NC(=O)[C@H](CC(=O)O)NC(=O)[C@@H](N)CCSC)C(=O)N[C@H](C(=O)N[C@@H](Cc1ccccc1)C(=O)N[C@@H](CCC(=O)O)C(=O)N[C@@H](CO)C(=O)N[C@@H](C)C(=O)N[C@@H](CO)C(=O)N[C@@H](CCCCN)C(=O)N[C@@H](C)C(=O)N[C@@H](CCCNC(=N)N)C(=O)N[C@@H](CC(C)C)C(=O)N1CCC[C@H]1C(=O)O)[C@@H](C)CC` [LCMV NP521-535] showed an IC50 of 4.4 nM. To `CC[C@H](C)[C@H](NC(=O)[C@H](CC(C)C)NC(=O)[C@H](Cc1ccccc1)NC(=O)[C@@H](NC(=O)[C@H](CC(N)=O)NC(=O)[C@@H](NC(=O)CNC(=O)CNC(=O)[C@H](CCCCN)NC(=O)[C@H](CCSC)NC(=O)[C@H](Cc1ccc(O)cc1)NC(=O)[C@H](Cc1ccc(O)cc1)NC(=O)[C@H](Cc1ccccc1)NC(=O)[C@H](CO)NC(=O)[C@@H](N)CC(N)=O)C(C)C)[C@@H](C)O)C(=O)O` [MACV GPC96-110] belongs 0.21 nM.

Take `CC(C)C[C@H](NC(=O)[C@H](CO)NC(=O)[C@H](CCCNC(=N)N)NC(=O)[C@H](CCC(=O)O)NC(=O)[C@H](Cc1ccccc1)NC(=O)[C@H](CC(N)=O)NC(=O)[C@H](CC(C)C)NC(=O)[C@H](Cc1c[nH]cn1)NC(=O)[C@@H](NC(=O)[C@H](CCCCN)NC(=O)[C@@H](N)CO)[C@@H](C)O)C(=O)N[C@@H](CCCCN)C(=O)N[C@@H](C)C(=O)N[C@@H](Cc1ccccc1)C(=O)N[C@@H](Cc1ccccc1)C(=O)O` [MACV GPC251-265]: the IC50 is 1.7 nM. The result for `CC[C@H](C)[C@H](NC(=O)CNC(=O)[C@@H](NC(=O)[C@H](CC(C)C)NC(=O)[C@H](Cc1c[nH]cn1)NC(=O)[C@H](CC(C)C)NC(=O)[C@H](Cc1ccccc1)NC(=O)[C@H](CC(C)C)NC(=O)[C@H](CO)NC(=O)[C@H](C)N)C(C)C)C(=O)N1CCC[C@H]1C(=O)N[C@H](C(=O)N[C@@H](Cc1c[nH]cn1)C(=O)N[C@@H](CCCNC(=N)N)C(=O)N[C@@H](Cc1c[nH]cn1)C(=O)O)[C@@H](C)O` [MACV GPC446-460] reads 0.13 nM. Molecule `CC[C@H](C)[C@H](NC(=O)[C@H](CC(C)C)NC(=O)[C@H](CCCCN)NC(=O)[C@@H](NC(=O)[C@H](C)NC(=O)[C@H](CCC(=O)O)NC(=O)[C@H](CC(C)C)NC(=O)[C@@H](NC(=O)[C@H](CC(=O)O)NC(=O)[C@H](CC(C)C)NC(=O)[C@@H](NC(=O)[C@H](CCCNC(=N)N)NC(=O)[C@@H](N)CC(=O)O)C(C)C)[C@@H](C)CC)C(C)C)C(=O)N[C@@H](CCCNC(=N)N)C(=O)N[C@@H](CCCCN)C(=O)O` [MACV L391-405] (H-DRVLDILEAVKLIRK-OH) gave a 50% inhibitory concentration (IC50) of 0.48 nM. The result for `CC[C@H](C)[C@H](NC(=O)[C@H](Cc1c[nH]cn1)NC(=O)[C@H](Cc1c[nH]cn1)NC(=O)[C@@H](NC(=O)[C@H](CCC(N)=O)NC(=O)[C@H](CC(N)=O)NC(=O)[C@H](C)NC(=O)[C@H](Cc1ccccc1)NC(=O)[C@H](C)NC(=O)[C@H](CCSC)NC(=O)[C@H](CC(C)C)NC(=O)[C@H](Cc1ccccc1)NC(=O)[C@H](Cc1ccc(O)cc1)NC(=O)[C@@H](N)CCCNC(=N)N)[C@@H](C)CC)C(=O)N[C@@H](CC(=O)O)C(=O)O` [MACV L636-650] reads 0.24 nM; that for `CC[C@H](C)[C@H](NC(=O)[C@H](CC(C)C)NC(=O)[C@H](Cc1ccc(O)cc1)NC(=O)[C@@H](N)CC(=O)O)C(=O)N[C@@H](CC(C)C)C(=O)N[C@@H](CCCCN)C(=O)N[C@@H](CC(N)=O)C(=O)N[C@@H](CC(C)C)C(=O)N[C@H](C(=O)NCC(=O)N[C@@H](CC(C)C)C(=O)N[C@H](C(=O)N[C@@H](CO)C(=O)N[C@@H](C)C(=O)NCC(=O)O)C(C)C)[C@@H](C)O` [MACV L866-880], 0.21 nM.
